Assay results from ChEMBL document CHEMBL5233254, “Anticancer fungal natural products: Mechanisms of action and biosynthesis” (Eur J Med Chem, 2020).
pEC50, pIC50, pKd: −log10 of the molar value. In brackets after ≈: the same amount, converted by molar mass. One block for each molecule: values may come before it.

How the values were obtained:
[1] = Inhibition of full-length human MEK
MCF7 = assay: Cytotoxicity against human MCF7 cells; type: functional, cell-based
[2] = Inhibition of V-ATPase (unknown origin); parameters: species or system Homo sapiens
14-3-3 eta/c-RAF = 14-3-3 eta/c-RAF (Homo sapiens, UniProt P04049+Q04917); assay: Stabilization of 14-3-3 eta (unknown origin)/ c-Raf (unknown origin); type: protein-complex assay
[3] = Anti-tumor activity against mouse lewis lung carcinoma cells allografted in mouse assessed as reduction in tumor growth at 2 mg/kg, po; type: functional; parameters: scale not given: the % may be the effect or the level left
[4] = biological target: T1, Heat shock factor protein 1 (Homo sapiens, UniProt Q00613); assay: Induction of HSF-1 (unknown origin) degradation assessed as ATPase activity by colorimetric assay
T1 sequence (Q00613 whole entry): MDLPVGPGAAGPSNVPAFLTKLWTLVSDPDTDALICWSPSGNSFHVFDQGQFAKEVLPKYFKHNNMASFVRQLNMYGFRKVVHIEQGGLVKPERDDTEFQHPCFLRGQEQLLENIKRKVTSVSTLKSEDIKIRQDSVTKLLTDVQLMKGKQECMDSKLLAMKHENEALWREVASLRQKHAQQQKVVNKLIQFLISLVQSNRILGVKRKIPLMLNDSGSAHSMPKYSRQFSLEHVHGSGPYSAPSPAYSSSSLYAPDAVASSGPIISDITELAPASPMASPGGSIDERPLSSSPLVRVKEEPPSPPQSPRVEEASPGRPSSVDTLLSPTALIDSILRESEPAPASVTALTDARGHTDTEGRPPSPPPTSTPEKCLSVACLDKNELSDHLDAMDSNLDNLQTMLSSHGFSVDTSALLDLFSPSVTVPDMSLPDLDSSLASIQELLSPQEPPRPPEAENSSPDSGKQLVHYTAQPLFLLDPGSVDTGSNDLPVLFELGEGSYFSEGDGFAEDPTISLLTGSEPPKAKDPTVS

[5] = Inhibition of PI3K (unknown origin); parameters: species or system Homo sapiens
Tubulin (Homo sapiens) = Tubulin (Homo sapiens) (UniProt P68371+Q9H4B7+P0DPH7+P68366+Q13509+Q71U36+P04350+Q3ZCM7+P07437+P68363+Q9BQE3+Q6PEY2+Q13885+Q9BVA1+Q9BUF5); assay: Inhibition of microtubule polymerization in human HeLa cells at 20 uM relative to control; type: cell-based
HeLa = assay: Antimitotic activity against human HeLa cells; type: functional, cell-based
Tubulin = assay: Binding affinity to tubulin (unknown origin) assessed as dissociation constant; type: protein-complex assay, Homo sapiens
[6] = Cytotoxicity against human endothelial cells; type: toxicity, cell-based; conditions: endothelial cell

Chain of 14-3-3 eta/c-RAF (P04049 whole entry): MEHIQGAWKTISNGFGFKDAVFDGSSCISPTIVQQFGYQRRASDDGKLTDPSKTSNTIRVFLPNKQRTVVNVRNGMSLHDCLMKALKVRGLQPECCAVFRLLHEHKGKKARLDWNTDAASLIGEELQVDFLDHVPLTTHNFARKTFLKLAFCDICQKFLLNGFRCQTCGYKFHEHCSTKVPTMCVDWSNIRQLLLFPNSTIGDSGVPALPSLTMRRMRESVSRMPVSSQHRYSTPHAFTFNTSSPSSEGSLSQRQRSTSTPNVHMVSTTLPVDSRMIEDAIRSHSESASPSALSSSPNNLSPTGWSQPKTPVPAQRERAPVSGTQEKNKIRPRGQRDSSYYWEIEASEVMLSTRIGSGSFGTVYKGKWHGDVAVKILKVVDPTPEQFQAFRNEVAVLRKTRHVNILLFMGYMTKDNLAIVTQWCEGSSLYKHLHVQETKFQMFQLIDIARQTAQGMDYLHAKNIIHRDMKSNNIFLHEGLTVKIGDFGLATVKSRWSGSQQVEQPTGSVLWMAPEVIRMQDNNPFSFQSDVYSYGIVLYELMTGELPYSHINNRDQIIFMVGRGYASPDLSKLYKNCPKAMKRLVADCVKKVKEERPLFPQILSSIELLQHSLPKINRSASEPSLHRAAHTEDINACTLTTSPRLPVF
Chain of 14-3-3 eta/c-RAF (Q04917 whole entry): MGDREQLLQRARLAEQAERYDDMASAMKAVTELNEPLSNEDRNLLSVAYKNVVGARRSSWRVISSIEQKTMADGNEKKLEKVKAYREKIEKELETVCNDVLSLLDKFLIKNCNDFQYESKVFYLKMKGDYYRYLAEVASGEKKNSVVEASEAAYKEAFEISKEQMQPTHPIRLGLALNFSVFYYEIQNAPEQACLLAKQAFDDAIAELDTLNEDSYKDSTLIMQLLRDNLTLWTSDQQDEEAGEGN

Structure (SMILES): COc1cc(O)c2c(c1)CCC[C@H](O)[C@H](O)C(=O)/C=C\C[C@H](C)OC2=O
pIC50 [1]: 5.40

Structure (SMILES): C[C@]12CCC3=C(C(=O)c4occ5c4[C@]3(C)CCC5=O)[C@@H]1CC[C@@H]2O
pIC50 (MCF7): 4.82

Structure (SMILES): CC[C@@H](C)[C@@H]1NC(=O)[C@H]2CCCN2C(=O)[C@@H](CC(C)C)OC(=O)CCNC(=O)[C@H](C)N(C)C(=O)[C@H](C(C)C)N(C)C1=O
pIC50 [2]: 5.27

Structure (SMILES): COC[C@H]1O[C@@H](O[C@@H]2C3=C(C(C)C)CC[C@]3(C)/C=C3\[C@@H](CC[C@]3(O)COC)[C@@H](C)[C@H]2O)[C@H](O)[C@H]2OC3O[C@]21O[C@@]3(C)[C@@H]1CO1
pEC50 (14-3-3 eta/c-RAF): 4.22

Structure (SMILES): C[C@H]1C/C=C/[C@H]2[C@@H]3O[C@]3(C)[C@@H](C)[C@H]3[C@H](Cc4ccccc4)NC(=O)[C@]32OC(=O)O/C=C/[C@@](C)(O)C1=O [CYTOCHALASIN E]
Activity [3]: 72%

pIC50 [4]: 4.82
Structure (SMILES): C[C@H]1CCC/C=C/C(=O)c2c(O)cc(O)cc2CC(=O)O1 [DEHYDROCURVULARIN]

Structure (SMILES): C[C@@]12c3ccc4c(c3C(=O)c3occ(c31)C(=O)C[C@H]2O)CCC4=O [DEMETHOXYVIRIDIN]
pIC50 [5]: 8.18

inhibition (Tubulin (Homo sapiens)): 75%
pIC50 (HeLa): 4.60
pKd (Tubulin): 3.52
Structure (SMILES): COC1=CC(=O)C[C@@H](C)[C@]12Oc1c(Cl)c(OC)cc(OC)c1C2=O [GRISEOFULVIN]

Structure (SMILES): CO[C@@H]1[C@H](OC(=O)NC(=O)CCl)CC[C@]2(CO2)[C@H]1[C@@]1(C)O[C@@H]1CC=C(C)C [O-CHLOROACETYLCARBAMOYLFUMAGILLOL]
IC50 [6]: 0.01 ng/mL (≈ 0.0249 nM)
